Literature values in patent US20070191365A1, “3,4,6-Substituted pyridazines for treating neuropathic pain and associated syndromes” (priority 2006, published 2007).

Tested on: animal model of Alzheimer's disease
Conditions: Ranaivo et al., J Neurosci. (2006) 26:662-670

c1ccc(-c2cc(-c3ccccc3)c(N3CCN(c4ncccn4)CC3)nn2)cc1 [4,6-diphenyl-3-(4-(pyrimidin-2-yl)piperazin-1-yl)pyridazine]
efficacy in an animal model of Alzheimer's disease: exhibits efficacy
